Tests used:
[1] = biological target: Carbonic anhydrase 1 (Homo sapiens, UniProt P00915); experiment: Inhibition of human carbonic anhydrase 1 incubated for 6 hrs by stopped flow carbon-di-oxide hydrase assay
[2] = biological target: Carbonic anhydrase 9 (Homo sapiens, UniProt Q16790); experiment: Inhibition of human carbonic anhydrase 9 incubated for 6 hrs by stopped flow carbon-di-oxide hydrase assay
[3] = biological target: Carbonic anhydrase 2 (Homo sapiens, UniProt P00918); experiment: Inhibition of human carbonic anhydrase 2 incubated for 6 hrs by stopped flow carbon-di-oxide hydrase assay

Carbonic anhydrase 1, sequence (P00915 whole entry): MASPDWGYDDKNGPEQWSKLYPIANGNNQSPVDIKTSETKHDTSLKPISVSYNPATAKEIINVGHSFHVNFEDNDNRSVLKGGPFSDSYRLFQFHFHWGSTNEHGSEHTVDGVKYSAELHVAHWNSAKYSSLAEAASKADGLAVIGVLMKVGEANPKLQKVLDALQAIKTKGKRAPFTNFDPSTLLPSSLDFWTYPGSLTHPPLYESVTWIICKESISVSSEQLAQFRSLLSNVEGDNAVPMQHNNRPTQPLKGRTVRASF

Row | Compound | Ki [1] [nM] | Ki [2] [nM] | Ki [3] [nM]
1 | O=c1ccc2ccc(OCc3cn(-c4cccc(Cl)c4)nn3)cc2o1 | > 10000 | 31.2 | > 10000
2 | Cc1cc(=O)oc2cc(-n3cc(COc4ccccc4)nn3)ccc12 |  | 33.1 | > 10000
3 | NS(=O)(=O)c1ccc(-n2cc(COc3ccc4ccc(=O)oc4c3)nn2)cc1 |  | 14.3 | > 10000
4 | O=c1ccc2ccc(OCc3cn(-c4ccc(O)cc4)nn3)cc2o1 |  | 26.9 | > 10000
5 | O=c1ccc2ccc(OCc3cn(-c4ccc(C(F)(F)F)cc4)nn3)cc2o1 |  |  | > 10000
6 | Cc1cc(=O)oc2cc(-n3cc(CNc4ccccc4)nn3)ccc12 |  | 34.4 | 9740
7 | COc1cccc(-n2cc(COc3ccc4ccc(=O)oc4c3)nn2)c1 |  | 23.6 | > 10000
8 | O=c1ccc2ccc(OCc3cn(-c4cccc(Br)c4)nn3)cc2o1 | > 10000 | 27.5 | > 10000
9 | O=c1ccc2ccc(OCc3cn(-c4cccc(F)c4)nn3)cc2o1 |  | 24.9 | > 10000
10 | Cc1cc(=O)oc2cc(-n3cc(CSc4ccccc4)nn3)ccc12 |  |  | > 10000
11 | O=c1ccc2ccc(OCc3cn(-c4ccc(F)cc4)nn3)cc2o1 |  | 24 | > 10000
12 | O=c1ccc2ccc(OCc3cn(-c4ccccc4)nn3)cc2o1 | > 10000 | 24.5 | > 10000
13 | Cc1cc(=O)oc2cc(-n3cc(COc4ccc5ccc(=O)oc5c4)nn3)ccc12 | > 10000 | 22.8 | > 10000
14 | O=C(O)c1ccc(-n2cc(COc3ccc4ccc(=O)oc4c3)nn2)cc1 |  | 28.8 | 99.6

From ChEMBL document CHEMBL3621125, “Click-tailed coumarins with potent and selective inhibitory action against the tumor-associated carbonic anhydrases IX and XII” (Bioorg Med Chem, 2015)
